Source: patent publication US12338203B2 (TAISHO PHARMACEUTICAL CO., LTD., priority 2019, dated 2025)

Target: T1, human LPAR1 (Homo sapiens, UniProt Q92633)
T1 construct: expressed in transfected cells
Assay: Test Example 1: antagonism against response of LPA-induced increase in intracellular Ca2+ concentration in RH7777 cells stably expressing human LPAR1
Format: cell-based
Settings: not given
Protocol: (1) Preparation of RH7777 cells stably expressing human LPAR1
The human LPAR1 expression vector was transfected into RH7777 cells to acquire human LPAR1 expressing cells.
(2) Test of antagonism against response of LPA-induced increase in intracellular Ca^2+ concentration
Cells stably expressing human LPAR1 were used for a test of antagonism against response of LPA-induced increase in intracellular Ca^2+ concentration.
The cells were seeded onto the Poly-D-Lysine 96 well black plate and incubated overnight. […] 50 μL of the Basal Buffer (1×HBSS, 20 mM HEPES, 2.5 mM Probenecid, 0.05% BSA, 0.25 mg/mL Amaranth, pH 7.4) containing the test compound was added thereto, followed by incubation at 37° C. for 30 minutes. In FDSS6000 (Hamamatsu Photonics K.K.), LPAs were added, and the change in intracellular Ca^2+ concentration was detected using the fluorescence value of a wavelength of 540 nm by an excitation wavelength of 480 nm as an indicator. […] The Rmax under […] without the test compound was used as the control value. The Rmax under Basal Buffer stimulation with no LPAs or test compounds was used as the basal value.
The percentage (%) of increase in intracellular Ca^2+ concentration was calculated by dividing the value obtained by subtracting the basal value from Rmax in the presence of LPAs and each concentration of the test compound by the value obtained by subtracting the basal value from the control value. The concentration of each test compound was plotted on the X axis and the percentage (%) of increase in intracellular Ca^2+ concentration was plotted on the Y axis, and the IC50 value was calculated by nonlinear regression using XLfit.

T1 sequence (Q92633 whole entry): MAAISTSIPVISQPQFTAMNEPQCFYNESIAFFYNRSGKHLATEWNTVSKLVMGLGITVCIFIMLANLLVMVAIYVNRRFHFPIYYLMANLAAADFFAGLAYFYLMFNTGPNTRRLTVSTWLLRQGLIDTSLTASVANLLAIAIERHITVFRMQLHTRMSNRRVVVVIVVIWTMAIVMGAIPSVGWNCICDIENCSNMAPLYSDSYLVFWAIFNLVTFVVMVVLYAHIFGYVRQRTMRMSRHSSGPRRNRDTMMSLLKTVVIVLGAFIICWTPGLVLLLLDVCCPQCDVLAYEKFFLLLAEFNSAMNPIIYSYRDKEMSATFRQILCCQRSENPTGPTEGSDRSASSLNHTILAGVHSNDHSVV

`COc1cc(C(C)N(CCCCc2ccccc2)C(=O)NC2(C(=O)O)CC(F)(F)C2)cc(OC)c1C` (stereo not drawn) [Example 1-66] showed an IC50 of 3.96 nM.

Same assay, conditions: RH7777 cells stably expressing human LPAR1; Fluo-4 fluorescence, FDSS6000; read-out: IC50 value (concentration producing 50% antagonism against response of LPA-induced increase in intracellular Ca2+ concentration) (converted)

Going from `COc1cc(C(C)N(CCCCc2ccccc2)C(=O)NC2(C(=O)O)CCC2)cc(OC)c1C` (stereo not drawn) [Example 1-23] to `COc1cc([C@@H](C)N(CCCCc2ccccc2)C(=O)NC2(C(=O)O)CC(F)(F)C2)cc(OC)c1C` [Example 1-67], the IC50 falls from 13 nM to 1.6 nM (8.1-fold).

`CCOc1cc([C@@H](C)N(CCCCc2ccccc2)C(=O)NC2(C(=O)O)CCC2)cc(OCC)c1C` [Example 1-24] and `CCCOc1cc(C(C)N(CCCCc2ccccc2)C(=O)NC2(C(=O)O)CC(F)(F)C2)cc(OCC)c1C` (stereo not drawn) [Example 1-69] are within 1.5-fold of each other in IC50: 3.54 nM for the first, 5.04 nM for the second.

Going from `CCOc1cc(C(C)N(CCCCc2ccccc2)C(=O)NC2(C(=O)O)CC(F)(F)C2)cc(OCC)c1C1CC1` (stereo not drawn) [Example 1-25] to `CCOc1cc([C@@H](C)N(CCCCc2ccccc2)C(=O)NC2(C(=O)O)CC(F)(F)C2)cc(OCC)c1C1CC1` [Example 1-46, Sodium 1-({[(1R)-1-(4-Cyclopropyl-3,5-Diethoxyphenyl)Ethyl](4-Phenylbutyl) Carbamoyl}Amino)-3,3-Difluorocyclobutane-1-Carboxylate], the IC50 falls from 2.71 nM to 1 nM (2.7-fold).

First: CCOc1cc(C(C)N(CCCCc2ccccc2)C(=O)NC2(C(=O)O)CC(F)(F)C2)cc(OCC)c1C(C)=O (stereo not drawn) [Example 1-29]
Second: CCOc1cc([C@@H](C)N(CCCCc2ccccc2)C(=O)NC2(C(=O)O)CC(F)(F)C2)cc(OCC)c1C(C)=O [Example 1-30, 1-({[(1R)-1-(4-Acetyl-3,5-Diethoxyphenyl)Ethyl](4-Phenylbutyl) Carbamoyl}Amino)-3,3-Difluorocyclobutane-1-Carboxylic Acid]
The IC50 of the first is 1.8-fold higher: 3.12 nM for the first, 1.75 nM for the second.

Going from `CCOc1cc([C@H](C)N(CCCCc2ccccc2)C(=O)NC2(C(=O)O)CC(F)(F)C2)cc(OCC)c1C(C)=O` [Example 1-31, 1-({[(1S)-1-(4-Acetyl-3,5-Diethoxyphenyl)Ethyl](4-Phenylbutyl) Carbamoyl}Amino)-3,3-Difluorocyclobutane-1-Carboxylic Acid] to `CCOc1cc(C(C)N(CCCCc2ccccc2)C(=O)NC2(C(=O)O)CC(F)(F)C2)cc(OCC)c1C(C)=O` (stereo not drawn) [Example 1-56], the IC50 falls from 177 nM to 33 nM (5.4-fold).

Going from `CCOc1cc(C(C)N(CCCCc2ccccc2)C(=O)NC2(C(=O)O)CC(F)(F)C2)cc(OCC)c1C(C)(C)O` (stereo not drawn) [Example 1-32] to `CCOc1cc(C(C)N(CCCCc2ccccc2)C(=O)NC2(C(=O)O)CC(F)(F)C2)cc(OCC)c1Br` (stereo not drawn) [Example 1-42], the IC50 falls from 8.93 nM to 4.02 nM (2.2-fold).

Compared with `CCOc1cc(C(C)N(CCCCc2ccccc2)C(=O)NC2(C(=O)O)CC(F)(F)C2)cc(OCC)c1C(O)CC` (stereo not drawn) [Example 1-33], `CCOc1cc(C(C)N(CCCCc2ccccc2)C(=O)NC2(C(=O)O)CC(F)(F)C2)cc(OCC)c1C(C)O` (stereo not drawn) [Example 1-34] is 3.6-fold lower in IC50: 7.13 nM for the first, 1.99 nM for the second.

`CCOc1cc(C(C)N(CCCCc2ccccc2)C(=O)NC2(C(=O)O)CC(F)(F)C2)cc(OCC)c1C1(O)CC1` (stereo not drawn) [Example 1-37] and `CCOc1cc(C(C)N(CCCCc2ccccc2)C(=O)NC2(C(=O)O)CC(F)(F)C2)cc(OCC)c1CO` (stereo not drawn) [Example 1-50, 1-{[{1-[3,5-Diethoxy-4-(Hydroxymethyl)Phenyl]Ethyl}(4-Phenylbutyl) Carbamoyl]Amino}-3,3-Difluorocyclobutane-1-Carboxylic Acid] are within 1.5-fold of each other in IC50: 3.45 nM for the first, 3.68 nM for the second.

First: CCOc1cc(C(C)N(CCCCc2ccccc2)C(=O)NC2(C(=O)O)CC(F)(F)C2)cc(OCC)c1C1(O)CC1 (stereo not drawn) [Example 1-38]
Second: C=Cc1c(OCC)cc(C(C)N(CCCCc2ccccc2)C(=O)NC2(C(=O)O)CC(F)(F)C2)cc1OCC (stereo not drawn) [Example 1-53]
The IC50 of the first is 1.8-fold higher: 5.4 nM for the first, 3 nM for the second.

Compared with `CCOc1cc(C(C)N(CCCCc2ccccc2)C(=O)NC2(C(=O)O)CC(F)(F)C2)cc(OCC)c1C(=O)O` (stereo not drawn) [Example 1-39], `CCOc1cc(C(C)N(CCCCc2ccccc2)C(=O)NC2(C(=O)O)CC(F)(F)C2)cc(OCC)c1C(N)=O` (stereo not drawn) [Example 1-40, 1-({[1-(4-Carbamoyl-3,5-Diethoxyphenyl)Ethyl](4-Phenylbutyl) Carbamoyl}Amino)-3,3-Difluorocyclobutane-1-Carboxylic Acid] is 55-fold lower in IC50: 5640 nM for the first, 103 nM for the second.

Compared with `CCOc1cc(C(C)N(CCCCc2ccccc2)C(=O)NC2(C(=O)O)CC(F)(F)C2)cc(OCC)c1C#N` (stereo not drawn) [Example 1-41], `CCOc1cc(C(C)N(CCCCc2ccccc2)C(=O)NC2(C(=O)O)CC(F)(F)C2)cc(OCC)c1CC` (stereo not drawn) [Example 1-47] is 2.3-fold lower in IC50: 6.15 nM for the first, 2.71 nM for the second.

Compared with `CCOc1cc([C@@H](C)N(CCCCc2ccccc2)C(=O)NC2(C(=O)O)CC(F)(F)C2)cc(OCC)c1CC` [Example 1-48], `CCOc1cc(C(C)N(CCCCc2ccccc2)C(=O)NC2(C(=O)O)CC(F)(F)C2)cc(OCC)c1OCC` (stereo not drawn) [Example 1-55] is 3-fold higher in IC50: 2.47 nM for the first, 7.44 nM for the second.

`CCOc1cc(C(C)N(CCCCc2ccccc2)C(=O)NC2(C(=O)O)CC(F)(F)C2)cc(OCC)c1C(C)C` (stereo not drawn) [Example 1-49] and `CCOc1cc(C(C)N(CCCCc2ccccc2)C(=O)NC2(C(=O)O)CC(F)(F)C2)cc(OCC)c1C(F)F` (stereo not drawn) [Example 1-51] are within 1.5-fold of each other in IC50: 5.21 nM for the first, 3.52 nM for the second.

First: CCOc1cc(C(C)N(CCCCc2ccccc2)C(=O)NC2(C(=O)O)CC(F)(F)C2)cc(OCC)c1C(O)C(F)(F)F (stereo not drawn) [Example 1-52]
Second: CCOc1cc(C(C)N(CCCCc2ccccc2)C(=O)NC2(C(=O)O)CC(F)(F)C2)cc(OCC)c1C(=O)C(F)(F)F (stereo not drawn) [Example 1-59]
The IC50 of the first is 1.9-fold lower: 7.96 nM for the first, 14.9 nM for the second.

`C=C(C)c1c(OCC)cc(C(C)N(CCCCc2ccccc2)C(=O)NC2(C(=O)O)CC(F)(F)C2)cc1OCC` (stereo not drawn) [Example 1-54] and `CCOc1cc(C(C)N(CCCCc2ccccc2)C(=O)NC2(C(=O)O)CC(F)(F)C2)cc(OCC)c1C(=O)CC` (stereo not drawn) [Example 1-58] are within 1.5-fold of each other in IC50: 3.25 nM for the first, 4.24 nM for the second.

Going from `CCOc1cc(C(C)N(CCCCc2ccccc2)C(=O)NC2(C(=O)O)CC(F)(F)C2)cc(OCC)c1S(C)(=O)=O` (stereo not drawn) [Example 1-57] to `CCOc1cc(C(C)N(CCCCc2ccccc2)C(=O)NC2(C(=O)O)CC(F)(F)C2)cc(OCC)c1C(=O)OC` (stereo not drawn) [Example 1-60], the IC50 falls from 26.6 nM to 5.46 nM (4.9-fold).

Going from `CCOc1cc(C(C)N(CCCCc2ccccc2)C(=O)NC2(C(=O)O)CC(F)(F)C2)cc(OCC)c1C(=O)NC` (stereo not drawn) [Example 1-61] to `CCOc1cc(C(C)N(CCCCc2ccccc2)C(=O)NC2(C(=O)O)CC(C)(C)C2)cc(OCC)c1C(C)=O` (stereo not drawn) [Example 1-84], the IC50 falls from 103 nM to 3.12 nM (33-fold).

Going from `CCOc1cc(C(C)N(CCCCc2ccccc2)C(=O)NC2(C(=O)O)CC(F)(F)C2)cc(O)c1C(C)=O` (stereo not drawn) [Example 1-62, 1-({[1-(4-Acetyl-3-Ethoxy-5-Hydroxyphenyl)Ethyl](4-Phenylbutyl) Carbamoyl}Amino)-3,3-Difluorocyclobutane-1-Carboxylic Acid] to `CCOc1cc(C(C)N(CCCCc2ccccc2)C(=O)NC2(C(=O)O)CC(F)(F)C2)cc(F)c1C(C)=O` (stereo not drawn) [Example 1-71], the IC50 falls from 6.76 nM to 3.48 nM (1.9-fold).

Going from `CCOc1cc(C(C)N(CCCCc2ccccc2)C(=O)NC2(C(=O)O)CC(F)(F)C2)cc(OCC(F)(F)F)c1C` (stereo not drawn) [Example 1-63] to `CCOc1cc(C(C)N(CCCCc2ccccc2)C(=O)NC2(C(=O)O)CC(F)(F)C2)cc(OC)c1C` (stereo not drawn) [Example 1-68], the IC50 falls from 10.9 nM to 3.78 nM (2.9-fold).

Going from `CCOc1cc(C(C)N(CCCCc2ccccc2)C(=O)NC2(C(=O)O)CC(F)(F)C2)cc(F)c1C(C)O` (stereo not drawn) [Example 1-72] to `CCOc1cc(C(C)N(CCCCc2ccccc2)C(=O)NC2(C(=O)O)CC(F)(F)C2)cc(COC)c1C` (stereo not drawn) [Example 1-74], the IC50 rises from 4.22 nM to 7.15 nM (1.7-fold).

First: Cc1c(OC2CC2)cc(C(C)N(CCCCc2ccccc2)C(=O)NC2(C(=O)O)CC(F)(F)C2)cc1OC1CC1 (stereo not drawn) [Example 1-73]
Second: CCOc1cc(C(C)N(CCCCc2ccccc2)C(=O)NC2(C(=O)O)CC(F)(F)C2)c(C)cc1C(C)=O (stereo not drawn) [Example 1-81]
The IC50 of the first is 7.9-fold higher: 7.43 nM for the first, 0.944 nM for the second.

Compared with `CCOc1c(C(C)=O)ccc([C@@H](C)N(CCCCc2ccccc2)C(=O)NC2(C(=O)O)CC(F)(F)C2)c1C` [Example 1-75], `CCOc1c(C(C)O)ccc([C@@H](C)N(CCCCc2ccccc2)C(=O)NC2(C(=O)O)CC(F)(F)C2)c1C` (stereo partly drawn) [Example 1-77, 1-{[{(1R)-1-[3-Ethoxy-4-(1-Hydroxyethyl)-2-Methylphenyl]Ethyl}(4-Phenylbutyl) Carbamoyl]Amino}-3,3-Difluorocyclobutane-1-Carboxylic Acid] is 2.5-fold higher in IC50: 1.24 nM for the first, 3.12 nM for the second.

First: CC(c1cc(Cl)cc(Cl)c1F)N(CCCCc1ccccc1)C(=O)NC1(C(=O)O)CC(F)(F)C1 (stereo not drawn) [Example 1-80]
Second: CCOc1cc([C@@H](C)N(CCCCc2ccccc2)C(=O)NC2(C(=O)O)CC(OC)C2)cc(OCC)c1C(C)=O (stereo partly drawn) [Example 1-85, 1-({[(1R)-1-(4-Acetyl-3,5-Diethoxyphenyl)Ethyl](4-Phenylbutyl) Carbamoyl}Amino)-3-Methoxycyclobutane-1-Carboxylic Acid]
The IC50 of the first is 5.2-fold higher: 13.1 nM for the first, 2.53 nM for the second.

`CCOc1cc([C@@H](C)N(CCCCc2ccccc2)C(=O)N[C@]2(C(=O)O)C[C@@H](OC)C2)cc(OCC)c1C(C)=O` [Example 1-86, Trans-1-({[(1R)-1-(4-Acetyl-3,5-Diethoxyphenyl)Ethyl](4-Phenylbutyl) Carbamoyl}Amino)-3-Methoxycyclobutane-1-Carboxylic Acid] was tested, and the IC50 was 2.33 nM.
